# Measured values as given in PubChem BioAssay AID2060611 (Molecular Pharmacology Branch, DTP, NCI, 2025).
# Values joined by “and” are separate entries in the source; they are usually repeats but may differ in a detail not shown here. Equal values may be shown once.
# System: 628569-122-R-J1-PDC complex spheroid viability
# Assay: Anticancer human tumor 628569-122-R-J1-PDC patient-derived head and neck squamous carcinoma cell line growth inhibition [CLK]
# Conditions: for viability, T/C: stronger effect = lower value
# How it was run: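 Multi-cell-type spheroids combined patient-derived tumor cells with HUVEC endothelial cells and human mesenchymal stem cells. Paired agents were dosed in half-log steps down from about clinical Cmax, or from 10 microM where Cmax was unknown.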
# 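Also: spheroids exposed to agents for seven days before readout.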
# 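For viability, T/C in this document: 100% = DMSO vehicle control viability.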
structure (smiles),measurement,setting,value
Cn1ncnc1[C@H]1c2n[nH]c(=O)c3cc(F)cc(c23)N[C@@H]1c1ccc(F)cc1 + CN1CCN(c2cc(C(=O)Nc3cc4cc(-c5cnn(C)c5)ccc4cn3)ccn2)CC1,IC50,"curve of first compound, second compound 0.0316 µM",> 0.1 µM
same,IC50,"curve of first compound, second compound 0.1 µM",0.069 µM
same,IC50,"curve of first compound, second compound 0.316 µM",< 0.000316 µM
same,IC50,"curve of first compound, second compound 1 µM",< 0.000316 µM
same,IC50,"curve of first compound, second compound 3.16 µM",< 0.000316 µM
same,IC50,"curve of first compound, second compound 10 µM",< 0.000316 µM
same,"viability, T/C","second compound 0.0316 µM, first compound 0.000316 µM",91.6%
same,"viability, T/C","second compound 0.0316 µM, first compound 0.001 µM",98.2%
same,"viability, T/C","second compound 0.0316 µM, first compound 0.00316 µM",89.9%
same,"viability, T/C","second compound 0.0316 µM, first compound 0.01 µM",92.5%
same,"viability, T/C","second compound 0.0316 µM, first compound 0.0316 µM",82.7%
same,"viability, T/C","second compound 0.0316 µM, first compound 0.1 µM",58.4%
same,"viability, T/C","second compound 0.1 µM, first compound 0.000316 µM",58.3%
same,"viability, T/C","second compound 0.1 µM, first compound 0.001 µM",68.8%
same,"viability, T/C","second compound 0.1 µM, first compound 0.00316 µM",69.9%
same,"viability, T/C","second compound 0.1 µM, first compound 0.01 µM",62.5%
same,"viability, T/C","second compound 0.1 µM, first compound 0.0316 µM",53.8%
same,"viability, T/C","second compound 0.1 µM, first compound 0.1 µM",47.5%
same,"viability, T/C","second compound 0.316 µM, first compound 0.000316 µM",35.3%
same,"viability, T/C","second compound 0.316 µM, first compound 0.001 µM",31.6%
same,"viability, T/C","second compound 0.316 µM, first compound 0.00316 µM",33.2%
same,"viability, T/C","second compound 0.316 µM, first compound 0.01 µM",34.2%
same,"viability, T/C","second compound 0.316 µM, first compound 0.0316 µM",33%
same,"viability, T/C","second compound 0.316 µM, first compound 0.1 µM",21.4%
same,"viability, T/C","second compound 1 µM, first compound 0.000316 µM",12.2%
same,"viability, T/C","second compound 1 µM, first compound 0.001 µM",4.22%
same,"viability, T/C","second compound 1 µM, first compound 0.00316 µM",4.14%
same,"viability, T/C","second compound 1 µM, first compound 0.01 µM",4.53%
same,"viability, T/C","second compound 1 µM, first compound 0.0316 µM",6.11%
same,"viability, T/C","second compound 1 µM, first compound 0.1 µM",5.95%
same,"viability, T/C","second compound 3.16 µM, first compound 0.000316 µM",9.51%
same,"viability, T/C","second compound 3.16 µM, first compound 0.001 µM",3.28%
same,"viability, T/C","second compound 3.16 µM, first compound 0.00316 µM",6.67%
same,"viability, T/C","second compound 3.16 µM, first compound 0.01 µM",8.93%
same,"viability, T/C","second compound 3.16 µM, first compound 0.0316 µM",9.05%
same,"viability, T/C","second compound 3.16 µM, first compound 0.1 µM",5.6%
same,"viability, T/C","second compound 10 µM, first compound 0.000316 µM",7.27%
same,"viability, T/C","second compound 10 µM, first compound 0.001 µM",1.99%
same,"viability, T/C","second compound 10 µM, first compound 0.00316 µM",2.02%
same,"viability, T/C","second compound 10 µM, first compound 0.01 µM",9.25%
same,"viability, T/C","second compound 10 µM, first compound 0.0316 µM",4.57%
same,"viability, T/C","second compound 10 µM, first compound 0.1 µM",0.98%
COC1C=CCC(C)C(C)S(=O)(=O)NC(=O)c2ccc3c(c2)N(CC2CCC21)CC1(CCCc2cc(Cl)ccc21)CO3 (centres undefined),"viability, T/C",compound 0.0316 µM,101% and 91.8%
same,"viability, T/C",compound 0.1 µM,107% and 82.2%
same,"viability, T/C",compound 0.316 µM,73% and 64.9%
same,"viability, T/C",compound 1 µM,57.9% and 45.1%
same,"viability, T/C",compound 3.16 µM,42.4% and 42.2%
same,"viability, T/C",compound 10 µM,36.5% and 33.7%
same,IC50,curve of compound,1.49 µM and 0.826 µM
